US20260248763A1 (BIO GENUINE (SHANGHAI) BIOTECH CO., LTD, priority 2023, published 2026)

Tests used:
OTR = molecular target: T1, OTR (Homo sapiens, UniProt P30559); experiment: Ca2+ mobilization in cells stably expressing OTR (FLIPR, antagonist mode); assay type: cell-based; settings: OTR/HEK293 stably transfected cell line
T1 construct: expressed in transfected cells; host or cells: OTR/HEK293 stably transfected cell line
T1 sequence (P30559 1-389): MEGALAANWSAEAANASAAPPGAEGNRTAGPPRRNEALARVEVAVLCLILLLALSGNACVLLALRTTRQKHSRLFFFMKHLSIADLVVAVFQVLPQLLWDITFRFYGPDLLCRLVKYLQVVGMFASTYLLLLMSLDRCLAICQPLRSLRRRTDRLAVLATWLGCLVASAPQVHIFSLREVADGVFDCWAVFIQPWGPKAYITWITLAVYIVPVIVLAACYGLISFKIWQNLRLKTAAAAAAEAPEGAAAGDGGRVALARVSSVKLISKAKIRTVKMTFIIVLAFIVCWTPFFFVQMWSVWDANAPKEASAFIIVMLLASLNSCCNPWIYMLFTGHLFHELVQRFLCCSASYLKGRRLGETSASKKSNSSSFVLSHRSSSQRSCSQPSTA
How it was run: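 OTR/HEK293 stable cells (20,000 per well) were loaded with Fluo-4 Direct plus probenecid. Cells were pre-exposed to 10-point, 3-fold compound dilutions before agonist challenge at EC80, determined beforehand per cell line. FLIPR calcium fluorescence (Max-Min) was fitted in Prism.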

V1aR = molecular target: T2, V1aR (Homo sapiens, UniProt P37288); experiment: Ca2+ mobilization in cells stably expressing V1aR (FLIPR, antagonist mode); assay type: cell-based; settings: V1a-CHO stably transfected cell line
T2 construct: expressed in transfected cells; host or cells: V1a-CHO stably transfected cell line
Description: Test Example 2. Determination of the Effect of the Compound of the Present Disclosure on Ca^2+ Mobilization in Cells Stably Expressing V1aR
To measure the antagonistic effect of the compound of the present disclosure on V1aR activity expressed in the V1a-CHO stably transfected cell line.
• F-12 (Hyclone, SH30026.01) • FLIPR CALCIUM 6 ASSAY KIT (Molecul Device, R8191) • Fetal Bovine Serum (FBS) (AusGeneX, FBS500-S) • Hygromycin B (Solarbio, H8080-1g) • DMSO (Sigma, D4540) • HBSS (Gibco 14025-092) • Probenecid (MCE, HY—B0545) • 0.36 mL 96 Round V-bottom Deep Well Plates for Laboratory (Biaosen P-0.36-BSA-96) • 384-well conical bottom polypropylene plate (Nunc, 264573) • Corning® 384-well Flat Clear Bottom Black Polystyrene TC-treated Microplates (Corning 3764)
• Biological safety cabinet (ECSO, AC2-6S1-TC) • Carbon dioxide cell incubator (ECSO, CCI-170B-8) • Inverted microscope (Olympus, CKX53) • Microplate low-speed centrifuge (Xiangzhi, TD5B) • FLIPR® Penta (Molecul Device, 5.0)
• 1. Cell plating: V1a-CHO cells were digested and harvested, resuspended and counted, and then inoculated into a 384-well cell plate at a density of: 1.2×10^4 cells/25 μL/well. The cell plate was then incubated in an incubator at 37° C. with 5% CO2 for about 16-20 h. • 2. The next day: after preparing Assay Buffer, 20× Component A was thawed to room temperature, diluted with Assay buffer to 1× loading buffer, and placed at room temperature for later use. • 3. The medium was removed from the cell plate, and 40 μL of 1× loading buffer was quickly added to each well. After centrifugation, the cell plate was incubated at 37° C. in the dark for 120 minutes. • 4. The serially diluted positive compound, serially diluted test compound, and agonist working solution were formulated. After mixing the serially diluted positive compound/serially diluted test compound with the agonist at a 1:1 ratio, 20 μL per well was transferred to a 384-well compound source plate. • 5. The cell plate, agonist source plate, and pipette tips were placed into their respective positions in the FLIPR instrument. Using FLIPR Tetra, 10 μL of the diluted agonist from Step 4 was added to each test well, and the data were collected at a wavelength of 515 nm-575 nm. • 6. The signal values were plotted against the compound concentrations, and the curve fitting and IC50 calculation were performed using the nonlinear regression method of GraphPad Prism software.

T2 sequence (P37288 whole entry, species assumed): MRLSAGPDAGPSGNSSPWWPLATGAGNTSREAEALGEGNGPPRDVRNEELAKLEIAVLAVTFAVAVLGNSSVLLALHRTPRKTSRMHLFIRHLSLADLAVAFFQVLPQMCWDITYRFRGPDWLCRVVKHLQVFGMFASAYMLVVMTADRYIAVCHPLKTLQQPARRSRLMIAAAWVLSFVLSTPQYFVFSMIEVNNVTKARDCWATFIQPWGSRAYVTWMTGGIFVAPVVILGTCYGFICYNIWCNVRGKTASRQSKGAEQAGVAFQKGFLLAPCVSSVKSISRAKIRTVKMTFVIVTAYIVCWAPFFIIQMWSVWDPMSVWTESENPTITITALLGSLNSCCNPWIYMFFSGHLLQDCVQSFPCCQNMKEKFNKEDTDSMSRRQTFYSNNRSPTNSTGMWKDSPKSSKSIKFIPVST

SMILES	IC50 (OTR) [nM]	IC50 (V1aR) [nM]
CO/N=C1/C[C@@H](CO)N(C(=O)c2ccc(-c3cccc(C#N)c3C)cc2OC)C1 [Example A0243]	34.1	7360
CO/N=C1/C[C@@H](CO)N(C(=O)c2ccc(-c3cccc(C#N)c3C)c(Cl)c2)C1 [Example A0246, 3-(2-Chloro-4-[(2S,4Z)-2-(hydroxymethyl)-4-(methoxyimino)pyrrolidine-1-carbonyl]phenyl)-2-methylbenzonitrile]	24.1	1850
CO/N=C1\CN(C(=O)c2ccc(-c3ccccc3C)cc2)[C@](C)(CO)C1 [Example C0021, (S, Z)-(2-(Hydroxymethyl)-4-(methoxyimino)-2-methylpyrrolidin-1-yl)(2′-methyl-[1,1′-biphenyl]-4-yl)methanone]	74	862
CO/N=C1\C[C@@H](CO)N(C(=O)c2ccc(-c3cccc(C)c3C)cc2)C1 [Example C0035, (S,E)-(2′,3′-Dimethyl-[1,1′-biphenyl]-4-yl)(2-(hydroxymethyl)-4-(methoxyimino)pyrrolidin-1-yl)methanone]	81.2	661
CO/N=C1/C[C@@H](CO)N(C(=O)c2ccc(-c3cccc(C)c3C)cc2)C1 [Example C0036, (S,Z)-(2′,3′-Dimethyl-[1,1′-biphenyl]-4-yl)(2-(hydroxymethyl)-4-(methoxyimino)pyrrolidin-1-yl)methanone]	32.1	790
CO/N=C1/C[C@@H](CO)N(C(=O)c2cnc(-c3cccc(Cl)c3C)cn2)C1 [Example C0041, (S, Z)-(5-(3-Chloro-2-methylphenyl)pyrazin-2-yl)(2-(hydroxymethyl)-4-(methoxyimino)pyrrolidin-1-yl)methanone]	49.3	1750
CO/N=C1/C[C@@H](CO)N(C(=O)c2ccc(-c3ccccc3C)cc2C)C1 [Example C0044, (S, Z)-(2′,3-Dimethyl-[1,1′-biphenyl]-4-yl)(2-(hydroxymethyl)-4-(methoxyimino)pyrrolidin-1-yl)methanone]	78.5	5510
CO/N=C1/C[C@@H](CO)N(C(=O)c2ccc(-c3cccc(OC)c3C)cc2)C1 [Example C0066, (S, Z)-(2-(Hydroxymethyl)-4-(methoxyimino)pyrrolidin-1-yl)(3′-methoxy-2′-methyl-[1,1′-biphenyl]-4-yl)methanone]	72.9	2160
CO/N=C1/C[C@@H](CO)N(C(=O)c2ccc(-c3cccc(C)c3C)c(OC)n2)C1 [Example C0073, (S, Z)-(5-(2,3-Dimethylphenyl)-6-methoxypyridin-2-yl)(2-(hydroxymethyl)-4-(methoxyimino)pyrrolidin-1-yl)methanone]	42.2	5030
CO/N=C1/C[C@@H](CO)N(C(=O)c2ccc(-c3ccc(C#N)c(C)c3C)cc2)C1 [Example C0075, (S, Z)-4′-(2-(Hydroxymethyl)-4-(methoxyimino)pyrrolidine-1-carbonyl)-2,3-dimethyl-[1,1′-biphenyl]-4-carbonitrile]	46.8	20000
CO/N=C1/C[C@@H](CO)N(C(=O)c2ccc(-c3cccc(C(F)F)c3C)cc2)C1 [Example C0079, (S, Z)-(3′-(Difluoromethyl)-2′-methyl-[1,1′-biphenyl]-4-yl)(2-(hydroxymethyl)-4-(methoxyimino)pyrrolidin-1-yl)methanone]	27.7	930

These reach a lower IC50 (OTR). Values come first.

IC50 (OTR) [nM]	IC50 (V1aR) [nM]	SMILES
23.2	1360	CO/N=C1/C[C@@H](CO)N(C(=O)c2ccc(-c3cccc(C#N)c3C)c3c2OCCCO3)C1 [Example A0235, (S,Z)-3-(9-(2-(Hydroxymethyl)-4-(methoxyimino)pyrrolidine-1-carbonyl)-3,4-dihydro-2H-benzo[b][1,4]dioxepin-6-yl)-2-methylbenzonitrile]
20.3	6130	CO/N=C1/C[C@@H](CO)N(C(=O)c2ccc(-c3cccc(C#N)c3C)cc2C)C1 [Example A0241, 3-(4-[(2S,4Z)-2-(Hydroxymethyl)-4-(methoxyimino)pyrrolidine-1-carbonyl]-3-methylphenyl)-2-methylbenzonitrile]
10.8	1550	CO/N=C1/C[C@@H](CO)N(C(=O)c2ccc(-c3cccc(C#N)c3C)c(OC)c2)C1 [Example A0242, (S,Z)-4′-(2-(Hydroxymethyl)-4-(methoxyimino)pyrrolidine-1-carbonyl)-2′-methoxy-2-methyl-[1,1′-biphenyl]-3-carbonitrile]
13.5	1370	CO/N=C1/C[C@@H](CO)N(C(=O)c2ccc(-c3cccc(C)c3C)cc2OC)C1 [Example C0038, (S,Z)-(2-(Hydroxymethyl)-4-(methoxyimino)pyrrolidin-1-yl)(3-methoxy-2′,3′-dimethyl-[1,1′-biphenyl]-4-yl)methanone]
16	3500	CO/N=C1/C[C@@H](CO)N(C(=O)c2ccc(-c3cccc(C)c3C)cc2C)C1 [Example C0045, (S, Z)-(2-(Hydroxymethyl)-4-(methoxyimino)pyrrolidin-1-yl)(3-methyl-2′,3′-dimethyl-[1,1′-biphenyl]-4-yl)methanone]
22.1	1850	CO/N=C1/C[C@@H](CO)N(C(=O)c2ccc(-c3ccccc3C)c(C)c2)C1 [Example C0046, (S, Z)-(2′,2-Dimethyl-[1,1′-biphenyl]-4-yl)(2-(hydroxymethyl)-4-(methoxyimino)pyrrolidin-1-yl)methanone]
11.2	2400	CO/N=C1/C[C@@H](CO)N(C(=O)c2ccc(-c3cccc(C)c3C)c(C)c2)C1 [Example C0047, (S, Z)-(2,2′,3′-Trimethyl-[1,1′-biphenyl]-4-yl)(2-(hydroxymethyl)-4-(methoxyimino)pyrrolidin-1-yl)methanone]
10.2	2760	CO/N=C1/C[C@@H](CO)N(C(=O)c2ccc(-c3cccc(Cl)c3C)cc2)C1 [Example C0056, (S, Z)-(3′-Chloro-2′-methyl-[1,1′-biphenyl]-4-yl)(2-(hydroxymethyl)-4-(methoxyimino)pyrrolidin-1-yl)methanone]
17.9	3210	CO/N=C1/C[C@@H](CO)N(C(=O)c2ccc(-c3cccc(C(F)(F)F)c3C)cc2)C1 [Example C0060, (S,Z)-(2-(Hydroxymethyl)-4-(methoxyimino)pyrrolidin-1-yl)(2′-methyl-3′-(trifluoromethyl)-[1,1′-biphenyl]-4-yl)methanone]
10.6	2740	CO/N=C1/C[C@@H](CO)N(C(=O)c2ccc(-c3cccc(C)c3C)c3c2OCO3)C1 [Example C0062, (S, Z)-(7-(2,3-Dimethylphenyl)benzo[d][1,3]dioxol-4-yl)(2-(hydroxymethyl)-4-(methoxyimino)pyrrolidin-1-yl)methanone]
11	584	CO/N=C1/C[C@@H](CO)N(C(=O)c2ccc(-c3cccc(C)c3C)c(OC)c2)C1 [Example C0064, (S, Z)-(2-(Hydroxymethyl)-4-(methoxyimino)pyrrolidin-1-yl)(2-methoxy-2′,3′-dimethyl-[1,1′-biphenyl]-4-yl)methanone]
11.1	2920	CO/N=C1/C[C@@H](CO)N(C(=O)c2ccc(-c3cccc(C)c3C)c3c2CCC3)C1 [Example C0083, (S,Z)-(7-(2,3-Dimethylphenyl)-2,3-dihydro-1H-inden-4-yl)(2-(hydroxymethyl)-4-(methoxyimino)pyrrolidin-1-yl)methanone]
